In patent US20180185391A1, “Drug Treatment Of Psoriasis And Of Other Skin Disorders Associated With Inhibition Of Differentiation Of Epidermal Cells” (priority 2016, published 2018):
“Also recorded” adds a separate entry of the source.

Key:
[1] = tested on: palmoplantar pustulosis lesions; settings: 0.55 mM alone for 4 days; cited from earlier work
[2] = tested on: psoriatic lesions; assay: Clinical observation of psoriatic plaques under topical treatment; type: in vivo, human
Method: The base cream used is made predominantly of heavy paraffin oil (10% w/w), vaseline (10% w/w), stearyl alcohol (8% w/w), polyoxylsteareth-40 (3% w/w) and water (68% w/w) but another suitably formulated base cream is also possible. […] The dosing and the application schedules followed for the lesion shown in FIG. 1A (psoriatic plaque on the dorsum of hand) are as follows: about 30 μl cream applied directly onto the lesion with the aid of a steel spatula every four hours for 24 hours. The cream-applied area is protected from accidental smearing and loss of the cream by covering with an aluminum applicator (FIG. 1 B). The dosing and the application schedules followed for the lesion shown in FIG. 1 D (psoriatic plaque at the scapular region) are as follows: about 30 μl cream applied directly onto the lesion every four hours for 24 hours. The cream-applied area is similarly covered against the smearing and loss of cream. Other treated psoriatic patients and lesions received from about 30 to 35 μl cream to each lesion at intervals of every 3 to 5 hours, as suitable and convenient. Lesions were similarly covered against the smearing and loss of cream. […] The corticosteroid used for treatment of the lesion shown in FIG. 4E was clobetasol 17-propionate in a final concentration of about 1.1 mM in base cream.

[3] = tested on: cytokeratin 15; assay: Immunohistochemical staining with C8/144B antibody (cytokeratin 15)
Text: All antibodies and reagents for these immunohistochemical investigations were purchased from DAKO (Glostrup, Denmark); human Ki-67 antigen was detected by the monoclonal antibody M7187, human epithelial antigen was detected by the monoclonal antibody Ber-EP4, human CD4 antigen was detected by the monoclonal antibody M0716, human CD8 antigen was detected by the monoclonal antibody C8/144B. Besides the CD8 antigen, the monoclonal antibody C8/144B is known to recognize and bind to the cytokeratin 15 expressed by the hair stem cells (Kanitakis J. et al. (1999) Eur. J. Dermatol. 9:363-365). A DAKO “universal visualization kit” (LSAB2) employing biotinylated secondary antibody and peroxidase-conjugated streptavidin (pre-diluted to match the dilutions of DAKO-supplied primary antibodies) was used for the visualization reactions. All reaction conditions were as recommended by the manufacturer.

[4] = tested on: psoriatic lesional skin; assay: Histopathological examination (H&E) of treated psoriatic lesional skin sections; type: in vivo, human; settings: 24th hour of treatment
Method: FIG. 1A and FIG. 1C show a psoriatic plaque before and after exposure to cyclopamine and the rapid clinical regression. The cyclopamine cream was applied to the proximal half of this lesion present on the dorsum of right hand of a patient having plaque-type psoriasis. At intervals of 4 hours, approximately 30 μl cream was applied directly onto the lesion and the cream-applied region was covered against accidental smearing and loss of the cream (FIG. 1 B).
FIG. 2A to FIG. 2W show histopathological and immunohistochemical examination findings of the tissue sections from the non-lesional skin, cyclopamine-treated lesional skin and non-treated lesional skin. Compared to the non-lesional skin (FIG. 2A), the non-treated lesional skin (FIG. 2B) is seen to display the typical histopathological signs of a psoriatic skin lesion mentioned above in the “Background of Invention”. […] These histopathological signs of regression to normalcy, exemplified in the figures FIG. 2C and FIG. 2D (examples from other cyclopamine-treated lesions and patients are given later) include the following: […]

[5] = tested on: human epithelial antigen; assay: Immunohistochemical staining for epithelial antigen with Ber-EP4 antibody; type: in vivo
Text: All reaction conditions were as recommended by the manufacturer.
The monoclonal antibody Ber-EP4 is known to label the basal layer cells in normal epidermis. The outer root sheath of hair follicles, where the hair stem cells are thought to reside, are also known to be labeled with Ber-EP4.

[6] = tested on: healthy skin; assay: Follow-up of healthy and non-lesional skin for adverse effects of topical cyclopamine; settings: for adverse effect on healthy / non-lesional skin: topical application under the described concentration and dosing conditions
Text: Genetic heterogeneity and different ages of the psoriatic patients as well as the localizational heterogeneity of psoriatic lesions throughout body invite evaluation of the use of cyclopamine on different patients and lesions.
As there is evidence for the involvement of the hedgehog/smoothened signal transduction pathway in the maintenance of epidermal stem cells, untoward side effects of cyclopamine on skin are, a priori, possible and must be excluded.

[7] = psoriatic lesional skin, 24th hour of treatment

| Compound | effect on palmoplantar pustulosis lesions [1] | regression or clearance of psoriatic lesions ([2]; about […], alone, four days of treatment) | erythema of the psoriatic plaque ([2]; 12th hour of treatment, scapular plaque, cyclopamine applied for a day then discontinued) | effectiveness on psoriatic lesions (regression and clearance) ([2]; every lesion treated, unrelated patients 29 to 57 years, extremities to trunk) | state of the psoriatic plaque ([2]; fourth day of follow-up, scapular plaque, 1 day of treatment, still visible) | lesions subjected to the single-day treatment that failed to clear completely ([2]; human, in vivo) | day on which the lesion cleared ([2]; scapular plaque, cyclopamine applied for a day then discontinued) | cytokeratin 15 in basal cells of non-lesional epidermis ([3]; non-lesional epidermis exposed to cyclopamine) | C8/144B (cytokeratin 15) labeling of epidermal basal layer cells [3, 7] | granular layer of epidermis [4] | histopathological signs of the psoriatic lesion [4] | Ber-EP4 labeling of basal cells of non-lesional skin ([5]; non-lesional skin after exposure to cyclopamine) | Ber-EP4 labeling of epidermal basal layer cells [5, 7] | appearance of skin sites of cyclopamine application ([6]; follow-up over a period of more than 31 months) | adverse effect on healthy / non-lesional skin [6] | adverse effect on healthy / non-lesional skin ([6]; listed as Cyclopamine) |
| --- | --- | --- | --- | --- | --- | --- | --- | --- | --- | --- | --- | --- | --- | --- | --- | --- |
| CCC(=O)O[C@]1(C(=O)CCl)[C@@H](C)C[C@H]2[C@@H]3CCC4=CC(=O)C=C[C@]4(C)[C@@]3(F)[C@@H](O)C[C@@]21C [clobetasol 17-propionate, reference compound] | not to produce a perceptible effect | unable to cause a significant regression or clearance | – | – | – | – | – | – | – | – | – | – | – | – | – | – |
| CC1=C2C[C@H]3[C@@H](CC=C4C[C@@H](O)CC[C@@]43C)[C@@H]2CC[C@]12O[C@@H]1C[C@H](C)CN[C@H]1[C@H]2C [cyclopamine] | – | – | decreased erythema | highly effective | marked regression | about 29% | > 8 days | continued to be positive for the cytokeratin 15 | normalized and became labeled by the C8/144B antibody; also recorded: reversion to normalcy | Re-appearance of the granular layer | dramatic improvement and regression to normalcy; also recorded: regression of the psoriatic plaque | remained Ber-EP4 positive | reverted to normalcy; also recorded: reversion to normalcy; also recorded: Epidermal basal layer cells are seen to display the epithelial antigen | healthy-looking normal skin and hair | no adverse effect has been detected | did not adversely affect the non-lesional skin; also recorded: no detectable adverse effect |
